Molecular target: T1, Protein tyrosine phosphatase 1B (PTP1B) (Homo sapiens, UniProt P18031)
T1 construct: gene PTPN1; recombinant human His-PTP1B protein
T1 sequence (P18031 1-435): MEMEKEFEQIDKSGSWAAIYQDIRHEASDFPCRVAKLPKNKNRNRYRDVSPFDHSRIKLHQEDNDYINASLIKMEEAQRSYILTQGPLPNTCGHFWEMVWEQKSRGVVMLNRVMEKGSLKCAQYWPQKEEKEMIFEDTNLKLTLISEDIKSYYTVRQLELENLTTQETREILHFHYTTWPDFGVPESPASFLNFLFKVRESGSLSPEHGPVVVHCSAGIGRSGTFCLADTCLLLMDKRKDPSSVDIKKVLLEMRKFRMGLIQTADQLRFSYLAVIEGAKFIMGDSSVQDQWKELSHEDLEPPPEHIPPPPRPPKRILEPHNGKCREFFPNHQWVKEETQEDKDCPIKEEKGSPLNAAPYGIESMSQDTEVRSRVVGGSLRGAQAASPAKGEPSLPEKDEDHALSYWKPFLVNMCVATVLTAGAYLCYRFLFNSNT
Test: pNPP phosphatase assay with recombinant His-PTP1B, absorbance at […] nm
Assay type: biochemical

Compound: CCCCCCCCCCCCCCOc1ccccc1NC(=O)c1ccccc1C(=O)O [CX08005]
- IC50: 750 ± 70 nM

From PMC9863901, “CX08005, a Protein Tyrosine Phosphatase 1B Inhibitor, Attenuated Hepatic Lipid Accumulation and Microcirculation Dysfunction Associated with Nonalcoholic Fatty Liver Disease” (Pharmaceuticals, 2023)
